Target: T1, sGC α1/β1 heterodimer (Homo sapiens, UniProt Q02108+Q02153)
T1 construct: expressed in transfected cells
T1 sequence (Q02108 1-690 partner): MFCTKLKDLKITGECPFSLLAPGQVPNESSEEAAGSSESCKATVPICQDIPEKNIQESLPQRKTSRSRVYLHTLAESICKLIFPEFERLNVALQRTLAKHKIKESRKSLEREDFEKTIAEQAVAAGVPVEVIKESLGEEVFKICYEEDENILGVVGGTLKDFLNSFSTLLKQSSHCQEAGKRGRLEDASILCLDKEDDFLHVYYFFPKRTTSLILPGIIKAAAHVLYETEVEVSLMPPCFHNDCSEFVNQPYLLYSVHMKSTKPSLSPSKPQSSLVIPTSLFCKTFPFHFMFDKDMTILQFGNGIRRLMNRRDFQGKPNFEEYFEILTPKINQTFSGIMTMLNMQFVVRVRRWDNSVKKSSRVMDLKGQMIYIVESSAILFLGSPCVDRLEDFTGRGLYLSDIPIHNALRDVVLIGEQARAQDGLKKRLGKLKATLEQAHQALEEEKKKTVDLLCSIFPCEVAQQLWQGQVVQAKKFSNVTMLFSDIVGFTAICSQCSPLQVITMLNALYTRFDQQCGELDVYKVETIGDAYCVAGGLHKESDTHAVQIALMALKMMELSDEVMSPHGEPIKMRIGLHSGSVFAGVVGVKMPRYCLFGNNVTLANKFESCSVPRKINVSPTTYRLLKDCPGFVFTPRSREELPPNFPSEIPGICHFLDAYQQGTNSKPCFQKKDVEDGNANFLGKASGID
T1 sequence (Q02153 1-619): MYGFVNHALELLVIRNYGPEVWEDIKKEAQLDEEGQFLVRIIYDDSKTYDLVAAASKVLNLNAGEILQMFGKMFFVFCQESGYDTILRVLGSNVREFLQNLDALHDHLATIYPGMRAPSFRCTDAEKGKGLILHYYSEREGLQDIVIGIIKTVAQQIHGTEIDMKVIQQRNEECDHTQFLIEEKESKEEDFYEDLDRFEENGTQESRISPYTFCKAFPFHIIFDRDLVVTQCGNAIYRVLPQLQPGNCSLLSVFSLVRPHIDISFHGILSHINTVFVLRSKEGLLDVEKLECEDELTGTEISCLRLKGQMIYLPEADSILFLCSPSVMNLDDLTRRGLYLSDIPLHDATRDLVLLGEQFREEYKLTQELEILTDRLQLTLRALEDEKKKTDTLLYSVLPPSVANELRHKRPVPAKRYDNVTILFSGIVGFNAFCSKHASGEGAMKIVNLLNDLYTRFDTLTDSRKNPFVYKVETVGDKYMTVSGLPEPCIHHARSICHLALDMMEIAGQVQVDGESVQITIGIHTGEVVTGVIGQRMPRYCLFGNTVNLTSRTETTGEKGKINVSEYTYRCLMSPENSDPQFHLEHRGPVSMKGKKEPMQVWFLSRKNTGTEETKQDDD
Experiment: Cell-Based sGC Functional Assay (CASA Assay)
Conditions: CHO-K1/sGC cells, with ODQ incubation (10 μM), 1 hr at 37° C., intracellular cGMP by HTRF; for EC50: read-out: IP (nM) (inflection point); for fold induction: read-out: maximum fold induction over DMSO control
Protocol: Cell-Based sGC Functional Assay (CASA Assay)
Rationale: sGC is a heme-containing enzyme that converts GTP (guanosine 5′-triphosphate) to secondary messenger cGMP. Increases in cGMP levels affect several physiological processes including vasorelaxation through multiple downstream pathways. […] Heme-independent activators (HIAs) preferentially activate sGC containing a ferric heme group, which can be generated upon incubation with 1H-(1,2,4)oxadiazolo(4,3-a) quinoxalin-1-one (ODQ). To determine the effect of sGC activators on enzyme activity, the CASA assay was developed to monitor the generation of cGMP in a cell line that stably expresses the heterodimeric sGC protein.
Methods: A CHO-K1 cell line stably expressing the sGC αl/β1 heterodimer was generated using a standard transfection protocol. CHO-K1 cells were transfected with plasmids pIREShyghsGCα1 and pIRESneo-hsGCβ1 simultaneously using FUGENE reagent. Clones that stably express both subunits were selected with hygromycin and neomycin for ˜2 weeks. Clone #7 was chosen for the assay and was designated CHO-K1/sGC. CHO-K1/sGC cells were maintained in F-K12 medium containing 10% heat-inactivated Fetal Bovine Serum (FBS), 100 μg/mL penicillin/streptomycin, 0.5 mg/mL hygromycin and 0.25 mg/mL G418. On the day of the assay, cells were harvested in EBSS (Earle's balanced salt solution) Assay Buffer (EAB) containing 5 mM MgCl2, 10 mM HEPES (4-(2-hydroxyethyl)piperazine-1-ethanesulfonic acid) and 0.05% BSA (bovine serum albumin) and cell density was adjusted to 2×10^6/mL with EAB. IBMX (3-isobutyl-1-methylxanthin, 0.5 mM) was added to inhibit degradation of cGMP. Compounds were diluted from DMSO stock solutions and added to the assay at a final DMSO concentration of 1%. Cells were incubated with compounds in the presence and absence of 10 μM of 1H-(1,2,4)oxadiazolo(4,3-a) quinoxalin-1-one (ODQ) for 1 hr at 37° C. At the end of the incubation period, the reaction was terminated and the cells were lysed. The level of intracellular cGMP was determined using an HTRF-based assay kit (CisBio, 62GM2PEC), which detects the displacement of a fluorescence labeled cGMP from its specific antibody. The amount of cGMP was plotted against compound concentration in PRISM software and the inflection point (IP) and maximum fold induction over DMSO control were derived from the plot.

| EC50 [nM] | fold induction | SMILES |
| --- | --- | --- |
| 51.5 | 281 | O=C(O)c1cnn(-c2cccc(-c3ccccc3OCc3ccc(C4CCN(CC(F)(F)F)CC4)cc3)n2)c1C(F)(F)F [Example 1, 1-[6-[2-[[4-[1-(2,2,2-Trifluoroethyl)-4-piperidinyl]phenyl]methoxy]phenyl]-2-pyridinyl]-5-(trifluoromethyl)-1H-pyrazole-4-carboxylic acid] |
| 2.4 | 189 | O=C(O)c1cnn(-c2cccc(-c3cc(F)cc(Cl)c3OCc3ccc(C4CCN(CC(F)(F)F)CC4)cc3)n2)c1C(F)(F)F [Example 2, 1-(6-(3-Chloro-5-fluoro-2-((4-(1-(2,2,2-trifluoroethyl)piperidin-4-yl)benzyl)oxy)phenyl)pyridin-2-yl)-5-(trifluoromethyl)-1H-pyrazole-4-carboxylic acid] |
| 10.4 | 127 | Cc1cc(C2CCN(CC(F)(F)F)CC2)ccc1COc1ccccc1-c1cccc(-n2ncc(C(=O)O)c2C(F)(F)F)n1 [Example 3, 1-(6-(2-((2-Methyl-4-(1-(2,2,2-trifluoroethyl)piperidin-4-yl)benzyl)oxy)phenyl)pyridin-2-yl)-5-(trifluoromethyl)-1H-pyrazole-4-carboxylic acid] |
| 26.9 | 244 | COC(=O)N1CCC(c2ccc(COc3c(F)cccc3-c3cccc(-n4ncc(C(=O)O)c4C(F)(F)F)n3)cc2)CC1 [Example 5, 1-{6-[3-fluoro-2-({4-[1-(methoxycarbonyl)piperidin-4 yl]benzyl}oxy)phenyl]pyridin-2-yl}-5-(trifluoromethyl)-1H-pyrazole-4-carboxylic acid] |
| < 0.5 | 216 | CCC(=O)N1CCC(c2ccc(COc3c(-c4cccc(-n5ncc(C(=O)O)c5C(F)(F)F)n4)cccc3C(F)(F)F)cc2)CC1 [Example 76, 1-(6-(2-((4-(1-propionylpiperidin-4-yl)benzyl)oxy)-3-(trifluoromethyl)phenyl)pyridin-2-yl)-5-(trifluoromethyl)-1H-pyrazole-4-carboxylic acid] |
| 1.5 | 151 | COC(=O)N1CCC(c2ccc(COc3c(-c4cccc(-n5ncc(C(=O)O)c5C(F)(F)F)n4)cccc3C(F)(F)F)cc2)CC1 [Example 77, 1-(6-(2-((4-(1-(methoxycarbonyl)piperidin-4-yl)benzyl)oxy)-3-(trifluoromethyl)phenyl)pyridin-2-yl)-5-(trifluoromethyl)-1H-pyrazole-4-carboxylic acid] |
| 2.6 | 170 | O=C(O)c1cnn(-c2cccc(-c3cccc(C(F)(F)F)c3OCc3ccc(C4CCN(C(=O)C5CC5)CC4)cc3)n2)c1C(F)(F)F [Example 81, 1-(6-(2-((4-(1-(cyclopropylcarbonyl)piperidin-4-yl)benzyl)oxy)-3-(trifluoromethyl)phenyl)pyridin-2-yl)-5-(trifluoromethyl)-1H-pyrazole-4-carboxylic acid] |
| 5.4 | 50 | O=C(O)c1cnn(-c2cccc(-c3cccc(Cl)c3OCc3ccc(C4CCN(C(=O)C5CC5)CC4)cc3)n2)c1C(F)(F)F [Example 84, 1-(6-(3-chloro-2-((4-(1-(cyclopropylcarbonyl)piperidin-4-yl)benzyl)oxy)phenyl)pyridin-2-yl)-5-(trifluoromethyl)-1H-pyrazole-4-carboxylic acid] |
